Key:
dermal fibroblasts = experiment: Dermal fibroblast proliferation in photo damaged (UVB irradiated) skin in vivo, BrdU/vimentin staining; set-up: species or system nude mice (BALB/cAnN.Cg-Foxn1nu/CrlNarl); conditions: for BrdU/Vimentin Labeling Index (%): after 8-week UVB, ointment plus microneedle twice a week for 2 weeks
Experimental: For animal study, BrdU was reconstituted in DMSO as stock (80 mM). 10 μl of BrdU stock mixed with 90 μl of PBS was intraperitoneally injected into mouse at 16 hours prior to euthanasia. Formalin-fixed, paraffin-embedded skin specimens were deparaffinized in xylene and rehydrated in a graded series of ethanol. The specimens were then exposed to 1 N HCl at room temperature for 1 hour for subsequent immunofluorescence study.
(§1) BrdU-labeled DNA was detected by polyclonal anti-BrdU antibody and rhodamine-conjugated donkey anti-rabbit IgG. Nuclei were counterstained with Hoechst 33258 (blue).
Six-week-old female nude mice (BALB/cAnN.Cg-Foxn1nu/CrlNarl) were irradiated with ultraviolet B (UVB) on the back 5 times a week for an eight-week period using a bank of five UVB lamps (model XL-1000B, Spectrolinker™ apparatus; emission peak: 312 nm), placed about 20 cm above the backs of the animals. During the UVB exposure, the mice were allowed to move freely within the cage. The irradiation intensity represented as the minimal erythe al dose (MED) was set at 1 MED during the first 2 weeks (60 mJ/cm^2), and was progressively elevated to 2 MED (120 mJ/cm^2) in the 3rd-4th week, to 3 MED (180 mJ/cm^2) in the 5th-6th week, and to 4 MED (240 mJ/cm^2) during the 7th-8th weeks of the experiment. After the 8-week UVB exposure, animals developed noticeable wrinkles and were subsequently randomly divided into the following 4 groups, with 3 mice in each group. In the UVB/vehicle, UVB/29-mer, UVB/20-mer, and UVB/18-mer groups, 350 μl of ointment (containing DMSO, 29-mer, 20-mer or 18-mer PEDF) was applied to the dorsal skin and then transdermal delivery was achieved by punching the ointment treated skin with the microneedle patch. Also, mice that were not subjected to UVB radiation were used as control (Normal). The ointment/microneedle treatment was given twice a week for 2 weeks. Mice were intraperitoneally given BrdU and euthanized at 16 hours after the last treatment. Skin sections were stained for vimentin and BrdU. The level of BrdU- and vimentin-double positive cells was expressed as the percentage of BrdU- and vimentin-double positive cells per total vimentin-positive cells (the BrdU/Vimentin Labeling Index).

MMP-13 = experiment: UVB-induced MMP-13 mRNA expression in primary mouse dermal fibroblasts, RT-PCR; type: cell-based; conditions: for MMP-13 Expression Level (%): mRNA, Vehicle/UVB set to 100%; for effect on UVB-induced upregulation of MMP-13: cells pretreated with peptide
Experimental: (§2) Full-thickness skin tissue was obtained from the dorsum of C57BL/6 mouse. The subcutaneous tissue was carefully dissected from the skin and washed three times in sterile phosphate-buffered saline (PBS). The tissue was then cut into small pieces (1-2 mm^3). After being digested with 0.1% dispase at 4° C. overnight, the epidermal layers were removed, and the remaining dermal parts were further digested with 0.1% collagenase I at 37° C. for another 4 hours. The digested cells were then collected by centrifugation (400 g for 5 minutes) and resuspended in high-glucose DMEM supplemented with 10% FBS, 2 mM L-glutamine, and 1% penicillin-streptomycin antibiotic mixture. Cells were seeded onto tissue-culture plates (Falcon Labware; NJ, USA) at 1×10^3 cells/cm^2 and maintained at 37° C. with 5% CO2. After 24 hours, the medium was discarded to remove residual non-adherent cells, and cell culture was replenished with a fresh medium. For passage, near-confluent cells were harvested with 0.25% trypsin/EDTA.
The total RNA was extracted from cells using the TRIzol (Invitrogen) and treated with RNase-free DNase I (Qiagen, Santa Clarita, Calif.) to remove genomic DNA and then purified with an RNA purification kit (Dynabeads; Invitrogen). 1 μg of total RNA retrieved from primary dermal fibroblast was reverse-transcribed into cDNA by 200 units of expand Reverse-Transcriptase (Roche, Mannheim, Germany) in 20 μl of reaction buffer containing 0.25 μg of random primers and 0.8 mM dNTPs at 42° C. for 1 hour. 2 μl of the cDNA was used for the PCR reaction as templates. PCR was performed in a 30 μl volume containing 15 μl of EconoTaq® PLUS GREEN 2× Master Mix (Lucigen® Corp.), 1 μM of each primer and 2 μl of template DNA. cDNA was synthesized in an 18-22 cycle amplification reaction (denaturation, 20 s, 94° C.; annealing, 30 s, 57° C.; and polymerization, 40 s, 72° C.). The number of cycles for the primer set was chosen to be in the linear range of amplification. The sequences of specific PCR primers were mouse MMP-13 (accession number: NM_008607) sense, […] (SEQ ID NO: 12); antisense, […] (SEQ ID NO: 13); PCR product: 201 bp; and mouse glyceraldehyde 3-phosphate dehydrogenase (GAPDH; accession number: M32599) sense, […] (SEQ ID NO: 14); and anti-sense, […] (SEQ ID NO: 15); PCR product: 223 bp.). The PCR products were electrophoresed in a 2% agarose gel containing ethidium bromide and visualized by UV illumination. The intensities of the PCR products were quantified densitometrically using a FUJI LAS-3000 system and Multi Gauge Ver. 1.01 software (Fujifilm, Tokyo, Japan).
Primary mouse dermal fibroblasts in passage 2 of monolayer cultures were incubated with 1% FBS-DMEM supplemented with or without 100 nM PEDF peptide for 24 hours, and then subjected to UVB irradiation as described above. After UVB irradiation, PBS was replaced with 1% FBS-DMEM with or without PEDF peptide for further 24 hours, and then cellular total RNAs were extracted for subsequent RT-PCR analysis. The expression level of MMP-13 mRNA was normalized with the expression level in the Vehicle/UVB group (set to 100%), and quantitative results are summarized in Table 7.

[1] = test system: primary mouse dermal fibroblasts; experiment: Dermal fibroblast proliferation in vitro, BrdU labeling assay; type: cell-based, C57BL/6 mouse; conditions: 24 hours; for BrdU/Vimentin Labeling Index (%): 50 nM peptide in 1% FBS medium, BrdU 2 hours
Experimental: as §2
After fixing with 4% paraformaldehyde, cells were exposed to cold methanol for 2 minutes, and then treated with 1 N HCl at room temperature for 1 hour before performing immunofluorescence staining.
as §1
Primary mouse dermal fibroblasts were isolated and cultured as described in the “Materials and Methods” section. The dermal fibroblast at passage 2 were seeded at gelatin-coated slide in a 6-well plate at a density of 2×10^5 cells per well and cultured in growth medium (DMEM 10% FBS) for 24 hours before being replaced by a basal growth medium with 1% FBS only (control group) or with 1% FBS plus an additional 50 nM of PEDF-derived peptide (i.e., 29-mer, 24-mer, 20-mer, 18-mer, Mo 29-mer, or Mo 20-mer) for 24 hours. For BrdU labeling assay, BrdU (final concentration, 10 μM) was added to the culture for 2 hours. The level of BrdU- and vimentin-double positive cells was expressed as the percentage of BrdU- and vimentin-double positive cells per total vimentin-positive cells (the BrdU/Vimentin Labeling Index), and the results were summarized in Table 2.

[2] = after UVB exposure, transdermal delivery
[3] = 100 nM peptide 24 h before and 24 h after UVB 15 mJ/cm^2

Substance: Ac-SLGAEQRTESIIHRALYYDLISSPDIHGT-NH2 [29-mer]
- BrdU/Vimentin Labeling Index (%) (dermal fibroblasts): 5.2 ± 1.9 %
- proliferative activity of dermal fibroblasts relative to UVB/vehicle group (dermal fibroblasts; [2]): about 2.5 fold
- MMP-13 Expression Level (%) (MMP-13; [3]): 15.8 ± 1.8 %
- MMP-13 Expression Level (%) (MMP-13; 100 nM peptide, no UVB irradiation): 4.8 ± 0.63%
- effect on UVB-induced upregulation of MMP-13 (MMP-13): substantially reduced
- BrdU/Vimentin Labeling Index (%) [1]: 9.6 ± 1.6 %
- proliferation relative to control medium ([1]; 50 nM peptide): about 5 fold

Substance: EQRTESIIHRALYYDLIS [18-mer]
- BrdU/Vimentin Labeling Index (%) (dermal fibroblasts): 2.0 ± 0.8%
- effect on dermal fibroblast proliferation in UVB-damaged skin (dermal fibroblasts; [2]): failed to promote the dermal fibroblast proliferation
- MMP-13 Expression Level (%) (MMP-13; [3]): 103.3 ± 7.8%
- effect on UVB-induced upregulation of MMP-13 (MMP-13): unable to reduce the UVB-induced upregulation
- BrdU/Vimentin Labeling Index (%) [1]: 2.1 ± 0.61%
- effect on dermal fibroblast proliferation in vitro ([1]; 50 nM peptide): failed to elicit such effect

Substance: SLGAEQRTESIIHRALYYDL [20-mer, synthetic peptide corresponding to residues 93-112 of human PEDF]
- BrdU/Vimentin Labeling Index (%) (dermal fibroblasts): 5.9 ± 1.3 %
- proliferative activity of dermal fibroblasts relative to UVB/vehicle group (dermal fibroblasts; [2]): about 2.5 fold
- MMP-13 Expression Level (%) (MMP-13; [3]): 15.8 ± 3.3 %
- effect on UVB-induced upregulation of MMP-13 (MMP-13): substantially reduced
- BrdU/Vimentin Labeling Index (%) [1]: 10.4 ± 2.3 %
- proliferation relative to control medium ([1]; 50 nM peptide): about 5 fold
